Results on 11 compounds are retold here after ChEMBL document CHEMBL1144329, “De novo design, synthesis, and in vitro activity of LFA-1 antagonists based on a bicyclic[5.5]hydantoin scaffold” (Bioorg Med Chem Lett, 2005).

By IC50 is commonly meant the concentration that inhibits the measured activity by half. A low value points to greater potency in that assay.

For this experiment, the target named is Intercellular adhesion molecule (ICAM-1), Integrin alpha-L/beta-2 (Homo sapiens, UniProt P05107+P20701). The experiment is described as follows: Inhibitory concentration against leukocyte function-associated antigen-1 in HSB-2 human lymphoblast and H1HeLa cell adhesion assay. The experiment is classed as functional, cell-based, H1-HeLa.
Intercellular adhesion molecule (ICAM-1), Integrin alpha-L/beta-2, sequence (P20701 whole entry): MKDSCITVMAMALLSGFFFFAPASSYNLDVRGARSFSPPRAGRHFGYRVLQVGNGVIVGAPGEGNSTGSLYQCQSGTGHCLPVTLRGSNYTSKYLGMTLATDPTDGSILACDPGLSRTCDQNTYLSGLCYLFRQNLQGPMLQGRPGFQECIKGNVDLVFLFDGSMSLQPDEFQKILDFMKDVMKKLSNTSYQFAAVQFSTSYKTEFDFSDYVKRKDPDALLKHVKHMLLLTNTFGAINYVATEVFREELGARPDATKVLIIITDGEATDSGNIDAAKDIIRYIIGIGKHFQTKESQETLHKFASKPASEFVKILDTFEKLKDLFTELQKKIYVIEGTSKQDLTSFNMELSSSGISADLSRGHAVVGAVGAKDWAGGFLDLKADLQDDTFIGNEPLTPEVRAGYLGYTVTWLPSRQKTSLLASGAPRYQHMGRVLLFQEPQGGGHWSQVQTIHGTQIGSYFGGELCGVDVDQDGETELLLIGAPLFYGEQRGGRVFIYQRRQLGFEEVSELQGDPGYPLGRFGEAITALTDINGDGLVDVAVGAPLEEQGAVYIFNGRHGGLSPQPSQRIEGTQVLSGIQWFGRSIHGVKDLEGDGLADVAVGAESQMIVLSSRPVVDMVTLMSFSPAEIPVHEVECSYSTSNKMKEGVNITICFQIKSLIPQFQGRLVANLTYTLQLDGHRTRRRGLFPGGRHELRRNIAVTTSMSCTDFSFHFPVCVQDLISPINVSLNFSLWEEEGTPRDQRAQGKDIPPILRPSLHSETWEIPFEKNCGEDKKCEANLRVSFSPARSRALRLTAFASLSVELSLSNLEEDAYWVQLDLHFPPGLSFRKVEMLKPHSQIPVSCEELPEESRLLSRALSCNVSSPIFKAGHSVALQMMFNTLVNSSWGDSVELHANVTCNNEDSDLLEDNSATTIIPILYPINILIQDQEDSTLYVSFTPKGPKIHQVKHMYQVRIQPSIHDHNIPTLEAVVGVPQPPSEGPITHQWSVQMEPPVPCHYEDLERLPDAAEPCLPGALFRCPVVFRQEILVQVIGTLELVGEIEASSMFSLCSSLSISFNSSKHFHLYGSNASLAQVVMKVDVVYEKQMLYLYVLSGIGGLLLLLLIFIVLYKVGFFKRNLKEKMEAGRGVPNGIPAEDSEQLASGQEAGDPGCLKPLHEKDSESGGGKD
Intercellular adhesion molecule (ICAM-1), Integrin alpha-L/beta-2, sequence (P05362 whole entry, further chain): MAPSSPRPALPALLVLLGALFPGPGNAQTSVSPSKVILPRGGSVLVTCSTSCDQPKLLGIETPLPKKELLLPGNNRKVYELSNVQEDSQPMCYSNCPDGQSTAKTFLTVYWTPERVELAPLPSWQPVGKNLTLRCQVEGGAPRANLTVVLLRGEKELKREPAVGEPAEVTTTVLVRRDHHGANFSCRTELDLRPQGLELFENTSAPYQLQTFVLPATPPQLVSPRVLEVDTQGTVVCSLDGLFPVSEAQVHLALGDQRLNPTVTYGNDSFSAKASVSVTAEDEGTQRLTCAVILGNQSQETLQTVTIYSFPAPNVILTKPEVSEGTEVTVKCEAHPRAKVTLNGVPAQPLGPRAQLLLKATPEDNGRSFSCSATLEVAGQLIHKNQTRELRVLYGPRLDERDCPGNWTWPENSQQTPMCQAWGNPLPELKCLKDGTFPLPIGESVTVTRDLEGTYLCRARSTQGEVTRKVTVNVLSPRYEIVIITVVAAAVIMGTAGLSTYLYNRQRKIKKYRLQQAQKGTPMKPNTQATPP
Intercellular adhesion molecule (ICAM-1), Integrin alpha-L/beta-2, sequence (P05107 whole entry): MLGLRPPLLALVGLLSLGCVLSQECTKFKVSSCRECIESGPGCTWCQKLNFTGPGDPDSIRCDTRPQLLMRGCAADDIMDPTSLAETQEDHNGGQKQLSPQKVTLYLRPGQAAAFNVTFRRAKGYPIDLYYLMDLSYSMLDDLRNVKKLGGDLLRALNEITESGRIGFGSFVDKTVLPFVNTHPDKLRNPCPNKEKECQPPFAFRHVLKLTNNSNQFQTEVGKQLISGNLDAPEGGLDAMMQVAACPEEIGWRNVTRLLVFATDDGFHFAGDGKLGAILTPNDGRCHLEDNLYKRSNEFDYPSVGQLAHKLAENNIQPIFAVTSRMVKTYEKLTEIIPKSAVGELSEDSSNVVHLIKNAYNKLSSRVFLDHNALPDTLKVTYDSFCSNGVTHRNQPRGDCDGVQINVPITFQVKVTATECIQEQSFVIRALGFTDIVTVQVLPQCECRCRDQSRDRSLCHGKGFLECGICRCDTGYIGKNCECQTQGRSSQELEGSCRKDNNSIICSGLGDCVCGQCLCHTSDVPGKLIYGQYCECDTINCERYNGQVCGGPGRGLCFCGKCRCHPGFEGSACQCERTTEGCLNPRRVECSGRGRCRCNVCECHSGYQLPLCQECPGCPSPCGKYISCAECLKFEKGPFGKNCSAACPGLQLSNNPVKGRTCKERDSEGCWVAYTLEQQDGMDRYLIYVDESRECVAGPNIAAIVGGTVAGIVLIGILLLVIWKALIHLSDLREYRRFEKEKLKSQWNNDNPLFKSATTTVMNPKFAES
Compound `O=C1[C@H]2C[C@@H](OCc3cccc(-c4ccc(Cl)cc4)c3)CN2C(=O)N1c1cc(Cl)cc(Cl)c1` had an IC50 of 620 nM.

`O=C1[C@@H]2C[C@H](SCc3cccc(-c4ccc(Br)cc4)c3)CN2C(=O)N1c1cc(Cl)cc(Cl)c1`: the IC50 was 290 nM.

As for `CCN(Cc1cccc(-c2ccc(C#N)cc2)c1)[C@H]1C[C@H]2C(=O)N(c3cc(Cl)cc(Cl)c3)C(=O)N2C1`, inhibition was half-maximal at 730 nM (IC50).

Consider `O=C1[C@@H]2C[C@H](OCc3cccc(-c4ccc(Br)cc4)c3)CN2C(=O)N1c1cc(Cl)cc(Cl)c1`, for which the IC50 turned out to be 85 nM.

On to `O=C1[C@@H]2C[C@H](OCc3cccc(-c4cccc(Br)c4)c3)CN2C(=O)N1c1cc(Cl)cc(Cl)c1`, for which half-maximal inhibition (IC50) was put at 755 nM.

The compound `N#Cc1ccc(-c2cccc(CO[C@H]3C[C@H]4C(=O)N(c5cc(Cl)cc(Cl)c5)C(=O)N4C3)c2)cc1` displayed an IC50 of 270 nM.

In the case of `O=C1[C@@H]2C[C@@H](OCc3cccc(-c4ccc(Br)cc4)c3)CN2C(=O)N1c1cc(Cl)cc(Cl)c1`, the IC50 is 935 nM.

In turn, `O=C1[C@@H]2C[C@H](Oc3ccc(-c4ccc(Br)cc4)cc3)CN2C(=O)N1c1cc(Cl)cc(Cl)c1` came in with an IC50 of 480 nM.

`CN(Cc1cccc(-c2ccc(Br)cc2)c1)[C@H]1C[C@H]2C(=O)N(c3cc(Cl)cc(Cl)c3)C(=O)N2C1` gave an IC50 of 175 nM.

With `O=C1[C@H]2C[C@@H](OCc3cccc(-c4ccc(Br)cc4)c3)CN2C(=O)N1c1cc(Cl)cc(Cl)c1`, the IC50 stood at 275 nM. Against the preceding compound, the IC50 is about 1.6-fold higher.

`N#Cc1ccc(-c2cccc(CN[C@H]3C[C@H]4C(=O)N(c5cc(Cl)cc(Cl)c5)C(=O)N4C3)c2)cc1` came in with an IC50 of 175 nM.
